Assay [1] concerns U2OS and Hep3B cells. Put plainly: HRE-dependent luciferase reporter assay after transient transfection of NODD/CODD plasmids. It is filed as cell-based, human. Conditions: normoxic conditions, 24 hours. The text has this:
Since normoxic HIFα degradation is saturable ^17 and depends on sub-regions within the ODD we tested whether peptides encoding the HIF-1α amino terminal ODD (NODD) and carboxy terminal ODD (CODD) ^21 could affect HIF activity as measured by hypoxia response element (HRE)-dependent reporter gene expression. Briefly, Degradation is prevented by the NODD and CODD polypeptides competing for prolyl hydroxylation and/or VHL binding, thereby blocking subsequent ubiquitination. We constructed plasmids encoding NODD (HIF-1-α aa 343-417) or CODD (HIF-1-α aa 549-582) linked to nuclear localisation sequences and a c-myc epitope tag. These plasmids were transiently co-transfected into U2OS and Hep3B cells with an HRE-dependent luciferase reporter plasmid. […]
For reporter gene assays DNA fragments encoding HIF-1α amino acids 343-417, 380-417, 390-417, 390-410, 343-400, 530-95, 530-82, 549-82, 556-74 and 530-62 were generated by PCR using oligonucleotides containing 5′ SacII or 3′ AscI sites and inserted into a pCMV/myc/nuc (Invitrogen) derivative bearing these sites in frame with the NLS and epitope tag. […] To generate tet-operator dependent plasmids the open reading frames from the aa343-417 and aa549-82 constructs were subcloned into pUHD 10 ^34. […]

Assay [2] concerns human microvascular endothelial cells (HMEC-1). Put plainly: Tubule formation assay, co-culture with HMEC-1. It is filed as cell-based. Conditions: intermittent doxycycline over 5 days. The text has this: Artificial activation of the HIF signalling pathway using the methods of the invention should induce angiogenesis and will therefore be of potential therapeutic use in ischaemic disease. We tested the effect of polypeptide induced HIF stabilisation in an in vitro angiogenesis assay, co-culturing human microvascular endothelial cells (HMEC-1) with empty vector transfected or doxCODD cells. In view of the possibility of sustained activation inducing a negative feedback loop we opted to test the effects of intermittent induction. […] As a positive control epidermal Growth Factor (EGF; 5 ng/ml), which is known to induce growth of HMEC-1, was used. To extend these observations into an in vivo model we assayed the effects of injecting tat-fusion proteins into polyurethane sponges implanted subcutaneously in mice. Intermittent injections on days 1, 2, 4 and 5 led to a markedly accelerated angiogenic response assayed on day 7 when compared with sponges injected with proline mutant fusion proteins, excluding a contribution from the tat component ^28. […]
doxCODD or empty vector cells were co-cultivated with human microvascular endothelial cells (HMEC-1) in a ratio of 2:1 in DMEM 10% doxycycline free FCS (Clontech), 2 mM Glutamine and 100 U/ml Penicillin/100 μg/ml Streptomycin. […] Endothelial cells were detected using antibodies to von Willebrand factor (vWF) (Dako).

Assay [3] has as its system U2OS cells. Put plainly: U2OS cells stably transfected with doxycycline-inducible NODD or CODD. Format: cell-based, human. The protocol: To explore further the therapeutic potential of NODD and CODD polypeptides to activate endogenous HIF we stably transfected U2OS cells with doxycycline-inducible NODD (doxNODD) and CODD constructs (doxCODD) encoding identical sequences to those used for transient transfections.
Cells stably transfected with NODD or CODD controlled by the tetracycline-inducible system were exposed to doxycycline. Cell extracts were prepared 0, 16, 24 and 48 hours after exposure to doxycycline. The extracts of doxNODD (HIF-1α aa343-417), doxCODD (HIF-1α aa549-82) and control cells (empty vector) were then immunoblotted for HIF-1α protein. Increased HIF-1α signals were detected from 16-48 hours following doxycycline administration in doxNODD and doxCODD cells but not in empty vector cells. Levels of HIF-1α induced by hypoxia were also measured for comparison. The endogenous HIF-1α induction was doxycycline dose (0.2-3.2 μg/ml) and time dependent, peaking after 48 hours. Maximal levels were about 20% and about 70% of HIF-1α levels seen following hypoxic or DFO treatment of the doxNODD and doxCODD cells respectively. […]
Stably transfected cell lines were generated by transfecting U2OS cells bearing the reverse tetracycline responsive transactivator ^34 and the tetKRAB silencer construct ^36 with pUHD/HIF plasmids. Following selection in G418 (1 mg/ml) individual colonies were picked. DoxNODD (F21) and doxCODD (myc19) clones expressed pUHD/HIF-1aa343-417/3NLS/c-myc and pUHD/HIF-1α aa549-82/3NLS/c-myc respectively. […]
Cell extracts were prepared in buffer (8M urea, 10% glycerol, 1% SDS, 5 mM DTT, 10 mM Tris/pH 6.8), separated by SDS-PAGE and transferred to Immobilon-P membrane (Millipore). Primary antibodies against HIF-1α, c-myc tag and HA tag were from Transduction Laboratories, Innogenex and Roche Molecular respectively. […]

Assay [4] deals with T1, VHL E3 ubiquitin ligase (Homo sapiens, UniProt P40337).
T1 construct: expressed in transfected cells; host or cells: 786-0 cells stably transfected with pcDNA3 VHL.HA (whole extract, anti-HA immunoprecipitation)
The assay can be described thus: VHL E3 interaction assay with 35S-labelled tat-ODD IVTT products. It is filed as binding. The settings on record: after modification by cell extracts. The text has this: Concordant with the ubiquitination assays discussed above NODD (HIF-1α 343-417) and CODD (HIF-1α 549-582) polypeptides, but not their corresponding proline mutants (HIF-1α 343-417/P402A and HIF-1α 549-582/P564G), bound to VHL E3 ubiquitin ligase after modification by cell extracts. The ^35S-methionine labelled recombinant polypeptides therefore interacted with VHL, supporting the results of the ubiquitination experiments discussed above. The interaction was enhanced by the presence of cell extracts which promote hydroxylation of the prolines at positions 402 and 564 ^19. In contrast, no binding occurred using peptides in which prolines were mutated.
For VHL E3 interaction assays ^35S-methionine labelled HIF-1a substrates were prepared by transcription/translation using TnT7 rabbit reticulocyte lysate (Promega). 100 μM DFO was added to the reaction to suppress prolyl hydroxylase activity of the reticulocyte lysate. Substrate modification was achieved by incubation of HIF-1α translate with RCC4 cell lysate in the presence of ferrous chloride (100 μM). Interaction with VHL E3 was analysed as described previously ^21.

Experimental findings from patent publication US9844546B2, “Antibody against human HIF hydroxylase” (OXFORD UNIVERSITY INNOVATION LIMITED, priority 2001, dated 2017) are described below.

T1 sequence (P40337 whole entry): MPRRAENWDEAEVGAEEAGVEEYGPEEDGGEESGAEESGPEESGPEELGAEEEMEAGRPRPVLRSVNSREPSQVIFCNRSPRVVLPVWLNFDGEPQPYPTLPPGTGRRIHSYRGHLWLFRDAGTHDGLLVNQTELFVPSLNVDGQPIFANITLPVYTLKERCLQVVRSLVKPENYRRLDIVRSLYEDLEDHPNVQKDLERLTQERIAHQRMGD
T1 sequence (Q15370 whole entry partner): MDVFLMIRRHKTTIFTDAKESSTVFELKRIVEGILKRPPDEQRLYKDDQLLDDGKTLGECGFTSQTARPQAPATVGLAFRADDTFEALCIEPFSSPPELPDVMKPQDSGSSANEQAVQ
T1 sequence (Q15369 whole entry partner): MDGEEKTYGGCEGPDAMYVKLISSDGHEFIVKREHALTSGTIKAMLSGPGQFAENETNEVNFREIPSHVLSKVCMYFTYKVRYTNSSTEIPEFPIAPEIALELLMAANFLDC
T1 sequence (Q13617 whole entry partner): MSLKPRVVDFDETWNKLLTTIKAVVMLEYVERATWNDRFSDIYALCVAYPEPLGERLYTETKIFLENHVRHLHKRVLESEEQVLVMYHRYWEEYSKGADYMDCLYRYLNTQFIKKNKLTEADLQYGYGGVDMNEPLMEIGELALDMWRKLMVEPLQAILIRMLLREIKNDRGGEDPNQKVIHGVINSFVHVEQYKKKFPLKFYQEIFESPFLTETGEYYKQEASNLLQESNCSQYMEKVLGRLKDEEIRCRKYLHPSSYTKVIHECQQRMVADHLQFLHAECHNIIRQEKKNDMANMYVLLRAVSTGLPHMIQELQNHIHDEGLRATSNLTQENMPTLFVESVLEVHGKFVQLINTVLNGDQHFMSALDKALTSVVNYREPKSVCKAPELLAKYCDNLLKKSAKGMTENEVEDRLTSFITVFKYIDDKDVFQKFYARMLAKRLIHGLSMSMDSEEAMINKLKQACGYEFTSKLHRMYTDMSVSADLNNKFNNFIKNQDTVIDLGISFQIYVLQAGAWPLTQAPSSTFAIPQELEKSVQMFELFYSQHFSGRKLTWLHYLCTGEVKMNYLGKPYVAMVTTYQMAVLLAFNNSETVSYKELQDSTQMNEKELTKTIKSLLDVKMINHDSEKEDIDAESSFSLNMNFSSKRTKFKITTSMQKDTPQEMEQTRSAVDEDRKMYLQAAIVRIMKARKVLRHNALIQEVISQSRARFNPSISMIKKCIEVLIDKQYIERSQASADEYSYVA
T1 sequence (P62877 whole entry partner): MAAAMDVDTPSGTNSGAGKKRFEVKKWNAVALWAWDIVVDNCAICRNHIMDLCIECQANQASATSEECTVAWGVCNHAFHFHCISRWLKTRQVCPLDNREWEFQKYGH

In the case of “CODD: HIF-1α carboxy terminal ODD polypeptide (aa 549-582) with nuclear localisation sequences and c-myc tag, plasmid expressed”, in assay [1], the “HRE-dependent relative luciferase activity” value is recorded as “increased relative luciferase activity”. Moreover, the “tubule formation of co-cultured endothelial cells” value in assay [2] was “assembly of co-cultured endothelial cells into complex tubular structures”. Further, the 3H-glucose uptake entry in assay [3] (24 hours induction with doxycycline, versus empty vector cells) is “enhanced uptake of ^3H-glucose”. In addition, in assay [3] (cell extracts versus empty vector extracts), the “ubiquitination of exogenous 35S-methionine labelled HIF-1α” value is on record as “markedly reduced”. In addition, in assay [3] (doxycycline 0.2-3.2 μg/ml, peaking after 48 hours), the “Maximal HIF-1α level relative to hypoxic or DFO treatment” value was “about 70%”. In assay [3] (doxycycline repeatedly added, 0-8 days), the “Glut-1 mRNA (ribonuclease protection)” value is “increased for the first 4 days and then declined”. The “CAIX mRNA (ribonuclease protection)” value in assay [3] (doxycycline, 24 and 48 hours) is “markedly induced mRNA levels”. In addition, the “binding to VHL E3 ubiquitin ligase” value in assay [4] is recorded as “bound”.
